Test results as given in ChEMBL document CHEMBL4406828, “Conformational restriction design of thiophene-biphenyl-DAPY HIV-1 non-nucleoside reverse transcriptase inhibitors” (Eur J Med Chem, 2019).

Columns and labels:
[1] = target: Human immunodeficiency virus type 1 reverse transcriptase (Human immunodeficiency virus 1, UniProt Q72547); test: Inhibition of recombinant HIV-1 reverse transcriptase p66/p51 incubated for 40 mins by picogreen dye based spectrofluorometric assay
[2] = Cytotoxicity against human MT4 cells assessed as reduction in cell viability incubated for 4 days by MTT assay; type: cell-based
[3] = system: Human immunodeficiency virus 1; test: Antiviral activity against HIV-1 harboring reverse transcriptase E138K mutant infected in human MT4 cells assessed as reduction in virus-induced cytopathic effect incubated for 4 days by MTT assay; type: functional, organism-based; settings: Human immunodeficiency virus 1, MT4, 96 h
[4] = system: Human immunodeficiency virus 1; test: Antiviral activity against HIV-1 harboring reverse transcriptase Y181C mutant infected in human MT4 cells assessed as reduction in virus-induced cytopathic effect incubated for 4 days by MTT assay; type: functional, organism-based; settings: Human immunodeficiency virus 1, MT4, 96 h
[5] = system: Human immunodeficiency virus 1; test: Antiviral activity against HIV-1 harboring reverse transcriptase L100I mutant infected in human MT4 cells assessed as reduction in virus-induced cytopathic effect incubated for 4 days by MTT assay; type: functional, organism-based; settings: Human immunodeficiency virus 1, MT4, 96 h
[6] = system: Human immunodeficiency virus 1; test: Antiviral activity against HIV-1 harboring reverse transcriptase K103N mutant infected in human MT4 cells assessed as reduction in virus-induced cytopathic effect incubated for 4 days by MTT assay; type: functional, organism-based; settings: Human immunodeficiency virus 1, MT4, 96 h

For `Cc1cc(-c2ccc(Oc3nc(Nc4ccc(C#N)cc4)nc4ccsc34)cc2C)ccc1C#N`, the IC50 [1] was 42 nM.

Work on `Cc1cc(-c2ccc(C#N)cc2F)ccc1Oc1nc(Nc2ccc(C#N)cc2)nc2ccsc12` yielded an IC50 [1] of 62 nM.

Work on `N#Cc1ccc(Nc2nc(Oc3ccc(-c4ccc(C#N)c(Cl)c4)cc3Cl)c3sccc3n2)cc1` yielded an IC50 [1] of 31 nM.

In the case of `Cc1cc(C#N)ccc1-c1ccc(Oc2nc(Nc3ccc(C#N)cc3)nc3ccsc23)cc1C`, the IC50 [1] is reported as 27 nM.

In the case of `N#Cc1ccc(Nc2nc(Oc3ccc(-c4ccc(C#N)cc4F)cc3)c3sccc3n2)cc1`, the IC50 [1] is reported as 65 nM.

In the case of `O=C1Nc2ccc(Cl)cc2[C@@](C#CC2CC2)(C(F)(F)F)O1` [EFAVIRENZ], the CC50 at 96 h [2] is reported as > 6.34 µM.

In the case of `Cc1cc(C#N)cc(C)c1Oc1nc(Nc2ccc(C#N)cc2)nc(N)c1Br` [ETRAVIRINE], the CC50 at 96 h [2] is reported as > 4.61 µM.

With `Cc1ccnc2c1NC(=O)c1cccnc1N2C1CC1` [NEVIRAPINE] the EC50 [3] was 200 nM, the CC50 at 96 h [2] was > 15 µM and the EC50 [4] was > 15 µM. The EC50 [5] was 1990 nM and the EC50 [6] was > 9.55 µM.
